Measured values taken from patent publication US20110059043A1, “CHEMICAL COMPOUNDS” (priority 2009, published 2011).

What was measured:
[1] = target: T1, Recombinant HCV polymerase (BK strain) (Hepatitis C virus genotype 1b, UniProt P26663); assay: HCV polymerase enzyme assay (radiometric [33P]-UTP incorporation); type: biochemical, HCV 1b
T1 construct: Recombinant HCV polymerase (BK strain) was expressed and purified from E. coli with a 21 amino acid C-terminal deletion; His6; made in house; host or cells: E. coli
T1 sequence (P26663 2420-2989): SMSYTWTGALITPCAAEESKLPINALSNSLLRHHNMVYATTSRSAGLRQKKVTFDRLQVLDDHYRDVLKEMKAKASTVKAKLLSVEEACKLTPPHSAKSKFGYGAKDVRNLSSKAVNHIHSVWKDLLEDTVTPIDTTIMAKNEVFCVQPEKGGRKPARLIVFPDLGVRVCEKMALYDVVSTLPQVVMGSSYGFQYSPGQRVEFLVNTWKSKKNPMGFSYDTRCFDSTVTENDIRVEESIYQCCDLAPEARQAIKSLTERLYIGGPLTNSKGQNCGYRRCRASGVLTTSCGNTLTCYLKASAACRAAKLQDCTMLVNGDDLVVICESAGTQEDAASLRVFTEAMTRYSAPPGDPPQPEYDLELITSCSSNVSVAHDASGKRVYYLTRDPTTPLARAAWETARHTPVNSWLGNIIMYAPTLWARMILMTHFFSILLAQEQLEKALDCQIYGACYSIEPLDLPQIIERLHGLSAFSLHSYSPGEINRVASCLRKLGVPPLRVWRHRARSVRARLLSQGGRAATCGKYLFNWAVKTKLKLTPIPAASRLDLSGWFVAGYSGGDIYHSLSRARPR
Description: Compounds were tested for inhibition of HCV polymerase using a radiometric [^33P]-UTP incorporation assay and a biotinylated U13:PolyA primer:template RNA substrate.
Recombinant HCV polymerase (BK strain) was expressed and purified from E. coli with a 21 amino acid C-terminal deletion and a His6-tag. The general assay buffer consisted of 20 mM Tris (pH 7.5), 25 mM KCl, 5 mM MgCl2, 3 mM DTT, 0.5 mg/ml BSA, 0.01% Tween20. The standard reaction, in 96 well plates, contained 10 μl of diluted compound, 50 μl of substrate and 40 μl of enzyme. Compounds, supplied as 10 mM stocks in DMSO, were diluted initially in neat DMSO, and subsequently buffer was added to give a DMSO concentration of 30%; 10 μl of this was added to the assay plate to give a final concentration in the 100 μl assay of 3% DMSO. The biotinylated U13:PolyA RNA substrate was pre-annealed with 40 μM 5′-biotinylated U13 (Dharmacon) and 213 μg/ml PolyA (Amersham Biosciences) in water incubated at 70° C. for 5 minutes before being cooled on ice. Substrate (50 μl) was added in buffer to give a final concentration in the 100 μl assay of 125 nM biotinylated U13:0.63 μg/ml PolyA and 200 nM UTP with 0.4 μCi [^33P]-UTP per well (Perkin Elmer). The reaction was initiated by the addition of 40 μl of enzyme in buffer to give 100 nM final concentration. The reaction was incubated at 25° C. for 100 minutes and then stopped by addition of 100 μl of 100 mM EDTA. The samples were then transferred to 96 well Streptavidin-coated FlashPlates (Perkin Elmer) and incubated at room temperature for ˜1 hour to allow binding to occur. The plates were then washed three times with phosphate-buffered saline containing 0.05% Tween20 in an automated plate washer to remove unincorporated [^33P]-UTP, and then counted in a
Each plate included a set of positive controls (no compound, maximum signal) and negative controls (no enzyme, minimum signal) and in each run at least one reference is compound was included to validate the assay. The IC50, concentration required to inhibit the enzyme activity by 50%, was calculated using an 8-point IC50 curve and fitted using the program XLfit (IDBS).

[2] = tested on: HCV replicon cells Huh 9B; type: cell-based; settings: concentration reducing total cell area by 50% relative to DMSO controls; 72 h
Description: (§1) HCV replicon cells Huh 9B (ReBlikon), containing the firefly luciferase—ubiquitin—neomycin phosphotransferase fusion protein and EMCV-IRES driven HCV polyprotein with cell culture adaptive mutations.
(§2) Cells were cultured at 37° C. in a 5% CO2 environment and split twice a week on seeding at 2×10^6 cells/flask on day 1 and 1×10^6 3 days later. G418 at 0.5 mg/ml was added to the culture medium but not the assay medium. The culture medium consisted of DMEM with […] glucose and glutamax (Gibco 61965-026) supplemented with 1×non-essential amino acids (Invitrogen 11140-035), penicillin (100 IU/ml)/streptomycin (100 μg/ml) (Invitrogen 15140-122), FCS (10%, 50 ml) and […] (Invitrogen 10131-027) & 10% Australian foetal calf serum (Invitrogen 10099-141).
(§3) A flask of cells was trypsinised and a cell count carried out. Cells were diluted to 100,000 cells/ml and 100 μl of this used to seed one opaque white 96-well plate (for the replicon assay) and one flat-bottomed clear plate (for the tox assay) for every five compounds to be tested for IC50. Wells G12 and H12 were left empty in the clear plate as the blank. Plates were then incubated at 37° C. in a 5% CO2 environment for 24 h.
(§4) On the following day compound dilutions are made up in medium at twice their desired final concentration in a clear round bottomed plate. All dilutions have a final DMSO concentration of 1%.
(§5) Once the dilution plate had been made up, controls and compounds were transferred to the assay plates (containing the cells) at 100 μl/well in duplicate wells. Exception: no compound was added to wells A1 and A2 of either plate and 100 μl of 1% DMSO was added to these instead. Plates were then incubated at 37° C. with 5% CO2 for 72 h.
The clear plate was stained with 100 μl 0.5% methylene blue in 50% ethanol at room temperature for lh, followed by solvation of the absorbed methylene blue in 100 μl per well of 1% lauroylsarcosine. Absorbance of the plate was measured on a microplate spectrophotometer (Molecular Devices) and the absorbance for each concentration of compound expressed as a proportion of the relative DMSO control. The TD50, the concentration of drug required to reduce the total cell area by 50% relative to the DMSO controls, can be calculated by plotting the absorbance at 620 nm minus background against drug concentration.

[3] = tested on: HCV replicon cells Huh 9B; assay: HCV replicon assay (luciferase); type: cell-based; settings: Hepatitis C virus, reduction of replicon level by 50% vs untreated cell control, 72 h
Description: as §1, §2, §3, §4, §5
At the end of the incubation time, the cells in the white plate were harvested by washing in PBS (100 μL per well) and gently tapping dry before addition of […] of lysis buffer (25 mM tris-phosphate, 8 mM MgCl2, 1 mM DTT, 1% Triton X-100, 15% glycerol. pH to 7.8 using KH2PO4 prior to triton and glycerol addition. Substrate was prepared: 23.5 mM beetle luciferin (Promega E1603), 26 mM ATP (Sigma O-2060) in […] Tris buffer pH 7.8 aliquoted and stored at −80° C. was thawed and diluted 1:50 in luciferase assay buffer (20 mM Tricine (Sigma T-0377), 1.07 mM magnesium carbonate hydroxide (Sigma M-5671), 0.1 mM EDTA (Sigma E-5134), 2.67 mM MgSO4(BDH 101514Y), 33.3 mM dithiothreitol (Sigma 150460) pH 7.8).
The M injector of the microplate luminometer (Lmax, Molecular Devices) was primed with 5×300 μl injections of the diluted substrate. After 5-60 min incubation in lysis buffer at room temperature, a plate was inserted into the luminometer and 100 μl luciferase assay reagent was added by the injector on the luminometer. The signal was measured using a 1 second delay followed by a 4 second measurement programme. The IC50, the concentration of the drug required for reducing the replicon level by 50% in relation to the untreated cell control value, can be calculated from the plot of the percentage reduction of the luciferase activity vs. drug concentration.

SMILES | IC50 [1] [nM] | Replicon Assay Value TD50 [2] [µM] | IC50 [3] [nM]
O=C(NC1N=C(c2c(Cl)cc(Cl)cc2Cl)c2ccccc2NC1=O)c1cc(Cl)ccc1OCCOc1ccccc1 (stereo not drawn) [Example 11, 5-Chloro-N-(2-oxo-5-(2,4,6-trichlorophenyl)-2,3-dihydro-1H-benzo[e][1,4]diazepin-3-yl)-2-(2-phenoxyethoxy)benzamide] | 864 | >25 | 1150
CN(C)CCCOc1ccc(Cl)cc1C(=O)NC1N=C(c2c(Cl)cc(Cl)cc2Cl)c2ccccc2NC1=O (stereo not drawn) [Example 12, 5-Chloro-2-(3-(dimethylamino)propoxy)-N-(2-oxo-5-(2,4,6-trichlorophenyl)-2,3-dihydro-1H-benzo[e][1,4]diazepin-3-yl)benzamide] | 3130 | 4.253 | 5510
CN(C)CCOCCOc1ccc(Cl)cc1C(=O)NC1N=C(c2c(Cl)cc(Cl)cc2Cl)c2ccccc2NC1=O (stereo not drawn) [Example 13, 5-Chloro-2-(2-(2-(dimethylamino)ethoxy)ethoxy)-N-(2-oxo-5-(2,4,6-trichlorophenyl)-2,3-dihydro-1H-benzo[e][1,4]diazepin-3-yl)benzamide] | 1700 | 6.754 | 3170
COCCOc1ccc(Cl)cc1C(=O)NC1N=C(c2c(Cl)cc(Cl)cc2Cl)c2ccccc2NC1=O (stereo not drawn) [Example 14, 5-Chloro-2-(2-methoxyethoxy)-N-(2-oxo-5-(2,4,6-trichlorophenyl)-2,3-dihydro-1H-benzo[e][1,4]diazepin-3-yl)benzamide] | 154 | 19.834 | 83.3
COCCOc1ccccc1C(=O)NC1N=C(c2c(Cl)cc(Cl)cc2Cl)c2ccccc2NC1=O (stereo not drawn) [Example 15, 2-(2-Methoxyethoxy)-N-(2-oxo-5-(2,4,6-trichlorophenyl)-2,3-dihydro-1H-benzo[e][1,4]diazepin-3-yl)benzamide] | 299 | 25.845 | 110
COCCOc1ccc(F)cc1C(=O)NC1N=C(c2c(Cl)cc(Cl)cc2Cl)c2ccccc2NC1=O (stereo not drawn) [Example 16, 5-Fluoro-2-(2-methoxyethoxy)-N-(2-oxo-5-(2,4,6-trichlorophenyl)-2,3-dihydro-1H-benzo[e][1,4]diazepin-3-yl)benzamide] | 119 | 22.094 | 38.7
COCCOc1ccc(C)cc1C(=O)NC1N=C(c2c(Cl)cc(Cl)cc2Cl)c2ccccc2NC1=O (stereo not drawn) [Example 17, 2-(2-Methoxyethoxy)-5-methyl-N-(2-oxo-5-(2,4,6-trichlorophenyl)-2,3-dihydro-1H-benzo[e][1,4]diazepin-3-yl)benzamide] | 235 | >25 | 78.8
COCCOc1ccc(C(C)=O)cc1C(=O)NC1N=C(c2c(Cl)cc(Cl)cc2Cl)c2ccccc2NC1=O (stereo not drawn) [Example 18, 5-Acetyl-2-(2-methoxyethoxy)-N-(2-oxo-5-(2,4,6-trichlorophenyl)-2,3-dihydro-1H-benzo[e][1,4]diazepin-3-yl)benzamide] | 385 | 15.802 | 876
COCCOc1ccc(OC(F)(F)F)cc1C(=O)NC1N=C(c2c(Cl)cc(Cl)cc2Cl)c2ccccc2NC1=O (stereo not drawn) [Example 19, 2-(2-Methoxyethoxy)-N-(2-oxo-5-(2,4,6-trichlorophenyl)-2,3-dihydro-1H-benzo[e][1,4]diazepin-3-yl)-5-(trifluoromethoxy)benzamide] | 2150 | >25 | 645
COCCOc1ccc(Br)cc1C(=O)NC1N=C(c2c(Cl)cc(Cl)cc2Cl)c2ccccc2NC1=O (stereo not drawn) [Example 20, 5-Bromo-2-(2-methoxyethoxy)-N-(2-oxo-5-(2,4,6-trichlorophenyl)-2,3-dihydro-1H-benzo[e][1,4]diazepin-3-yl)benzamide] | 535 | >25 | 195
CC(=O)NCCOc1ccc(Cl)cc1C(=O)NC1N=C(c2c(Cl)cc(Cl)cc2Cl)c2ccccc2NC1=O (stereo not drawn) [Example 21, 2-(2-Acetamidoethoxy)-5-chloro-N-(2-oxo-5-(2,4,6-trichlorophenyl)-2,3-dihydro-1H-benzo[e][1,4]diazepin-3-yl)benzamide] | 98.7 | 13.188 | 824
CCC(=O)NCCOc1ccc(Cl)cc1C(=O)NC1N=C(c2c(Cl)cc(Cl)cc2Cl)c2ccccc2NC1=O (stereo not drawn) [Example 22, 5-Chloro-N-(2-oxo-5-(2,4,6-trichlorophenyl)-2,3-dihydro-1H-benzo[e][1,4]diazepin-3-yl)-2-(2-propionamidoethoxy)benzamide] | 197 | 12.304 | 953
CS(=O)(=O)NCCOc1ccc(Cl)cc1C(=O)NC1N=C(c2c(Cl)cc(Cl)cc2Cl)c2ccccc2NC1=O (stereo not drawn) [Example 23, 5-Chloro-2-(2-(methylsulfonamido)ethoxy)-N-(2-oxo-5-(2,4,6-trichlorophenyl)-2,3-dihydro-1H-benzo[e][1,4]diazepin-3-yl)benzamide] | 952 | 12.744 | 2910
CCNC(=O)NCCOc1ccc(Cl)cc1C(=O)NC1N=C(c2c(Cl)cc(Cl)cc2Cl)c2ccccc2NC1=O (stereo not drawn) [Example 24, 5-Chloro-2-(2-(3-ethylureido)ethoxy)-N-(2-oxo-5-(2,4,6-trichlorophenyl)-2,3-dihydro-1H-benzo[e][1,4]diazepin-3-yl)benzamide] | 281 | 11.815 | 1280
CC(=O)NCCCOc1ccc(Cl)cc1C(=O)NC1N=C(c2c(Cl)cc(Cl)cc2Cl)c2ccccc2NC1=O (stereo not drawn) [Example 25, 2-(3-Acetamidopropoxy)-5-chloro-N-(2-oxo-5-(2,4,6-trichlorophenyl)-2,3-dihydro-1H-benzo[e][1,4]diazepin-3-yl)benzamide] | 459 | 12.774 | 575
